Laboratory results taken from patent US10758534B2 (Vertex Pharmaceuticals Incorporated, priority 2014, dated 2020).

Molecular target: T1, F508del (Homo sapiens, UniProt P13569, DEL508-508)
T1 construct: expressed in transfected cells
Assay: Protocol 1: membrane potential optical assay (FLIPR III, voltage sensing dye), identification of potentiator compounds
Type: cell-based
Settings: Table 3, compounds of Table 1
Outline: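 Read-out: change in voltage-sensing dye fluorescence (FLIPR III) as a measure of F508del conductance. Temperature-corrected (27° C, 24 hrs) NIH 3T3 cells expressing F508del are pretreated with potentiators, dye-loaded, then stimulated with forskolin under a chloride ion gradient using chloride-free gluconate bath.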

T1 sequence (P13569 with tags, fused parts or gaps DEL508-508): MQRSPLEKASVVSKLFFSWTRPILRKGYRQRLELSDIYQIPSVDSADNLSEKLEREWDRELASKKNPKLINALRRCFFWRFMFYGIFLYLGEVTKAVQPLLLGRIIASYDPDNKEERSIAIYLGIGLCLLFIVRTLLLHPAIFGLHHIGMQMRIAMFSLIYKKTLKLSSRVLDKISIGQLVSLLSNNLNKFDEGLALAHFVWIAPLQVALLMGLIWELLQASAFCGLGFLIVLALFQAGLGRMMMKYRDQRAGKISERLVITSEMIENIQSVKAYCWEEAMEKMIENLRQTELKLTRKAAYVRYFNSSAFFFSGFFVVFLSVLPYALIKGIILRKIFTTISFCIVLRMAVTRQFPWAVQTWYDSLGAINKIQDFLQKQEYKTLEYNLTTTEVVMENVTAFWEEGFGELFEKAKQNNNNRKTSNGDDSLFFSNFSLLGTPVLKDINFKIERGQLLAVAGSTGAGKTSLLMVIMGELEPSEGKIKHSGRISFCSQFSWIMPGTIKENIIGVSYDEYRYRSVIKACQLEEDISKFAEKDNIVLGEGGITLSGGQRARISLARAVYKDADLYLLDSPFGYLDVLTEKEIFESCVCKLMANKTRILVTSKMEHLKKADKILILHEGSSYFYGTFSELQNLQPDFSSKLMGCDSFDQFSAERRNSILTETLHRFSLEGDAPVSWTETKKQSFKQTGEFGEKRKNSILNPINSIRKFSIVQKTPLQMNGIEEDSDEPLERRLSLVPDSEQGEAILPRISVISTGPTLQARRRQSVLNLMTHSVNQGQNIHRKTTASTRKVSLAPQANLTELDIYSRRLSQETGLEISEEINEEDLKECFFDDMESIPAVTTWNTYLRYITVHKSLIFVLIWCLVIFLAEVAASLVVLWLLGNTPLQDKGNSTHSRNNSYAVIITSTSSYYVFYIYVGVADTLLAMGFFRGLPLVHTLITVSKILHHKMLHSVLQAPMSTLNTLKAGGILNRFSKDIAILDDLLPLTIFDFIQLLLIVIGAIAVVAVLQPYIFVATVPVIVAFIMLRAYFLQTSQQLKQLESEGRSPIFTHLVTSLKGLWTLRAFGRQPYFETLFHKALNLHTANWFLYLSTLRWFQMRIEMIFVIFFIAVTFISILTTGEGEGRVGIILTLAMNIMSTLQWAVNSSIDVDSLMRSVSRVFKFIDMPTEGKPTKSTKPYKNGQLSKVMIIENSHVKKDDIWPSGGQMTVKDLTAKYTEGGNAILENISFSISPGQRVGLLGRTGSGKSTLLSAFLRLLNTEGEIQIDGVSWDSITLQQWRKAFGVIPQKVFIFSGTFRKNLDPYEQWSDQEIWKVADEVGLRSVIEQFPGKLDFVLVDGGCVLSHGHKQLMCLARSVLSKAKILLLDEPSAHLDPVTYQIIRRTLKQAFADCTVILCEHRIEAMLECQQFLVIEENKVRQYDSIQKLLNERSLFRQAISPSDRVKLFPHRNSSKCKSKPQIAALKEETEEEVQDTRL

Structure (SMILES) | EC30
COc1ncc(-c2ccc(C(=O)NS(=O)(=O)c3nccnc3N)c(Oc3c(C)cc(C)cc3C)n2)cc1C [Compound 1249, N-(3-aminopyrazin-2-yl)sulfonyl-6-(6-methoxy-5-methyl-3-pyridyl)-2-(2,4,6-trimethylphenoxy)pyridine-3-carboxamide] | +++ (“+++” means <3 uM)
Cc1cc(C)c(Oc2nc(C)ccc2C(=O)NS(=O)(=O)c2cccc(N(C)C)n2)c(C)c1 [Compound 1250, N-[[6-(dimethylamino)-2-pyridyl]sulfonyl]-6-methyl-2-(2,4,6-trimethylphenoxy)pyridine-3-carboxamide] | +++ (“+++” means <3 uM)
COc1ccc(-c2ccc(C(=O)NS(=O)(=O)c3cccc(N)n3)c(Oc3c(C)cc(C)cc3C)n2)cc1O [Compound 1251, N-[(6-amino-2-pyridyl)sulfonyl]-6-(3-hydroxy-4-methoxy-phenyl)-2-(2,4,6-trimethylphenoxy)pyridine-3-carboxamide] | ++ (“++” means between 3 uM and 10 uM)
CCOc1cncc(-c2ccc(C(=O)NS(=O)(=O)c3cccc(N)n3)c(N3CC(C)CC3(C)C)n2)n1 (centres unmarked) [Compound 1252, N-[(6-amino-2-pyridyl)sulfonyl]-6-(6-ethoxypyrazin-2-yl)-2-(2,2,4-trimethylpyrrolidin-1-yl)pyridine-3-carboxamide] | +++ (“+++” means <3 uM)
Cc1cc(C)c(Oc2ncc(CCc3ccccc3)cc2C(=O)NS(=O)(=O)c2cccc(N)n2)c(C)c1 [Compound 1253, N-[(6-amino-2-pyridyl)sulfonyl]-5-phenethyl-2-(2,4,6-trimethylphenoxy)pyridine-3-carboxamide] | ++ (“++” means between 3 uM and 10 uM)
COc1cc(-c2cc(F)cc(OCC(C)C)c2)nc(N2[C@H](C)CC[C@@H]2C)c1C(=O)NS(=O)(=O)c1cccc(N)n1 [Compound 1254, N-[(6-amino-2-pyridyl)sulfonyl]-2-[(2S,5R)-2,5-dimethylpyrrolidin-1-yl]-6-(3-fluoro-5-isobutoxy-phenyl)-4-methoxy-pyridine-3-carboxamide] | +++ (“+++” means <3 uM)
CCOc1cc(F)cc(-c2ccc(C(=O)NS(=O)(=O)c3cccc(N)n3)c(Oc3c(C)cc(C)cc3C)n2)c1 [Compound 1255, N-[(6-amino-2-pyridyl)sulfonyl]-6-(3-ethoxy-5-fluoro-phenyl)-2-(2,4,6-trimethylphenoxy)pyridine-3-carboxamide] | +++ (“+++” means <3 uM)
CC(C)(C)c1cc(C(=O)NS(=O)(=O)c2cccc(N)c2)n(Cc2cccc3cc[nH]c23)n1 [Compound 1256, N-(3-aminophenyl)sulfonyl-5-tert-butyl-2-(1H-indol-7-ylmethyl)pyrazole-3-carboxamide] | ++ (“++” means between 3 uM and 10 uM)
CC(C)COc1cc(F)cc(-c2ccc(C(=O)NS(=O)(=O)c3ccn[nH]3)c(N3CCCC3Cc3ccccc3)n2)c1 (centres unmarked) [Compound 1257, 2-(2-benzylpyrrolidin-1-yl)-6-(3-fluoro-5-isobutoxy-phenyl)-N-(1H-pyrazol-5-ylsulfonyl)pyridine-3-carboxamide] | ++ (“++” means between 3 uM and 10 uM)
CC(C)COc1cc(F)cc(-c2ccc(C(=O)NS(=O)(=O)c3cccc(N)n3)c(N3CCCC3C(C)C)n2)c1 (centres unmarked) [Compound 1258, N-[(6-amino-2-pyridyl)sulfonyl]-6-(3-fluoro-5-isobutoxy-phenyl)-2-(2-isopropylpyrrolidin-1-yl)pyridine-3-carboxamide] | +++ (“+++” means <3 uM)
COc1cc(C)c(-c2ccc(C(=O)NS(=O)(=O)c3cccc(N)n3)c(N3CC(C)CC3(C)C)n2)cc1C (centres unmarked) [Compound 1259, N-[(6-amino-2-pyridyl)sulfonyl]-6-(4-methoxy-2,5-dimethyl-phenyl)-2-(2,2,4-trimethylpyrrolidin-1-yl)pyridine-3-carboxamide] | +++ (“+++” means <3 uM)
CC(C)COc1cc(F)cc(-c2ccc(C(=O)NS(=O)(=O)c3cccc(N)n3)c(N3CCC[C@H]3c3ccccc3)n2)c1 [Compound 1260, N-[(6-amino-2-pyridyl)sulfonyl]-6-(3-fluoro-5-isobutoxy-phenyl)-2-[(2S)-2-phenylpyrrolidin-1-yl]pyridine-3-carboxamide] | +++ (“+++” means <3 uM)
CC(C)(C)c1ccc(C(=O)NS(=O)(=O)c2cccc(N)n2)c(N2CCC[C@@H](c3ccccc3)C2)n1 [Compound 1261, N-[(6-amino-2-pyridyl)sulfonyl]-6-tert-butyl-2-[(3S)-3-phenyl-1-piperidyl]pyridine-3-carboxamide] | +++ (“+++” means <3 uM)
CC1CN(c2nc(-c3ccnc(C(C)C)c3)ccc2C(=O)NS(=O)(=O)c2cccc(N)n2)C(C)(C)C1 (centres unmarked) [Compound 1262, N-[(6-amino-2-pyridyl)sulfonyl]-6-(2-isopropyl-4-pyridyl)-2-(2,2,4-trimethylpyrrolidin-1-yl)pyridine-3-carboxamide] | ++ (“++” means between 3 uM and 10 uM)
CC(C)COc1cc(F)cc(-c2ccc(C(=O)NS(=O)(=O)c3cccc(N)n3)c(OC3CCCCCC3)n2)c1 [Compound 1263, N-[(6-amino-2-pyridyl)sulfonyl]-2-(cycloheptoxy)-6-(3-fluoro-5-isobutoxy-phenyl)pyridine-3-carboxamide] | +++ (“+++” means <3 uM)
CC(C)COc1cc(F)cc(-c2ccc(C(=O)NS(=O)(=O)c3cccc(N)n3)c(N3CCCC4(CCC4)C3)n2)c1 [Compound 1264, N-[(6-amino-2-pyridyl)sulfonyl]-2-(8-azaspiro[3.5]nonan-8-yl)-6-(3-fluoro-5-isobutoxy-phenyl)pyridine-3-carboxamide] | +++ (“+++” means <3 uM)
Cc1ccc(-c2nc(C(C)(C)C)ccc2C(=O)NS(=O)(=O)c2cccc(O)c2)cc1 [Compound 1265, 6-tert-butyl-N-(3-hydroxyphenyl)sulfonyl-2-(p-tolyl)pyridine-3-carboxamide] | ++ (“++” means between 3 uM and 10 uM)
CC(C)COc1cc(-c2ccc(C(=O)NS(=O)(=O)c3cccc(N)n3)c(N3CCC(C)CC3)n2)ccc1Cl [Compound 1266, N-[(6-amino-2-pyridyl)sulfonyl]-6-(4-chloro-3-isobutoxy-phenyl)-2-(4-methyl-1-piperidyl)pyridine-3-carboxamide] | +++ (“+++” means <3 uM)
CC(C)COc1cc(F)cc(-c2ccc(C(=O)NS(=O)(=O)c3cccc(N)n3)c(N3CCOCC3(C)C)n2)c1 [Compound 1267, N-[(6-amino-2-pyridyl)sulfonyl]-2-(3,3-dimethylmorpholin-4-yl)-6-(3-fluoro-5-isobutoxy-phenyl)pyridine-3-carboxamide] | +++ (“+++” means <3 uM)
CCOc1ccc(-c2ccc(C(=O)NS(=O)(=O)c3cccc(N)n3)c(Oc3c(C)cc(C)cc3C)n2)cc1OC [Compound 1268, N-[(6-amino-2-pyridyl)sulfonyl]-6-(4-ethoxy-3-methoxy-phenyl)-2-(2,4,6-trimethylphenoxy)pyridine-3-carboxamide] | +++ (“+++” means <3 uM)
Cc1cc(C(=O)NS(=O)(=O)c2cccc(N)n2)c(N2CC(C)CC2(C)C)nc1-c1cc(F)cc(OCC(C)C)c1 (centres unmarked) [Compound 1269, N-[(6-amino-2-pyridyl)sulfonyl]-6-(3-fluoro-5-isobutoxy-phenyl)-5-methyl-2-(2,2,4-trimethylpyrrolidin-1-yl)pyridine-3-carboxamide] | +++ (“+++” means <3 uM)
C[C@@H]1CC[C@H](C)N1c1nc(-c2ccc(OCC(C)(C)C)nc2)ccc1C(=O)NS(=O)(=O)c1cccc(N)n1 [Compound 1270, N-[(6-amino-2-pyridyl)sulfonyl]-6-[6-(2,2-dimethylpropoxy)-3-pyridyl]-2-[(2S,5R)-2,5-dimethylpyrrolidin-1-yl]pyridine-3-carboxamide] | +++ (“+++” means <3 uM)
CC(C)Oc1ccc(-c2ccc(C(=O)NS(=O)(=O)c3cccc(N)n3)c(N3CCCC3C)n2)cn1 (centres unmarked) [Compound 1271, N-[(6-amino-2-pyridyl)sulfonyl]-6-(6-isopropoxy-3-pyridyl)-2-(2-methylpyrrolidin-1-yl)pyridine-3-carboxamide] | +++ (“+++” means <3 uM)
Cc1ccnc(-c2ccc(C(=O)NS(=O)(=O)c3cccc(N)n3)c(Oc3c(C)cc(C)cc3C)n2)c1 [Compound 1272, N-[(6-amino-2-pyridyl)sulfonyl]-6-(4-methyl-2-pyridyl)-2-(2,4,6-trimethylphenoxy)pyridine-3-carboxamide] | +++ (“+++” means <3 uM)
Cc1cc(C)c(CN2Cc3ccccc3C2(C)C(=O)NS(=O)(=O)c2cccc(N)c2)c(C)c1 (centres unmarked) [Compound 1273, N-(3-aminophenyl)sulfonyl-1-methyl-2-[(2,4,6-trimethylphenyl)methyl]isoindoline-1-carboxamide] | +++ (“+++” means <3 uM)
CC(C)Oc1ccc(-c2ccc(C(=O)NS(=O)(=O)c3cccc(N)n3)c(N3CCCC(C(F)(F)F)C3)n2)cn1 (centres unmarked) [Compound 1274, N-[(6-amino-2-pyridyl)sulfonyl]-6-(6-isopropoxy-3-pyridyl)-2-[3-(trifluoromethyl)-1-piperidyl]pyridine-3-carboxamide] | +++ (“+++” means <3 uM)
Cc1cc(C)c(Oc2nc(-c3cnc(N4CCCC4)nc3)ccc2C(=O)NS(=O)(=O)c2cccc(N)n2)c(C)c1 [Compound 1275, N-[(6-amino-2-pyridyl)sulfonyl]-6-(2-pyrrolidin-1-ylpyrimidin-5-yl)-2-(2,4,6-trimethylphenoxy)pyridine-3-carboxamide] | +++ (“+++” means <3 uM)
Cc1cc(C)c(Oc2nc(-c3ccc4c(cnn4C)c3)ccc2C(=O)NS(=O)(=O)c2cccc(N)n2)c(C)c1 [Compound 1276, N-[(6-amino-2-pyridyl)sulfonyl]-6-(1-methylindazol-5-yl)-2-(2,4,6-trimethylphenoxy)pyridine-3-carboxamide] | ++ (“++” means between 3 uM and 10 uM)
COc1cc(-c2ccc(C(=O)NS(=O)(=O)c3cccc(N)n3)c(Oc3c(C)cc(C)cc3C)n2)c(F)cn1 [Compound 1277, N-[(6-amino-2-pyridyl)sulfonyl]-6-(5-fluoro-2-methoxy-4-pyridyl)-2-(2,4,6-trimethylphenoxy)pyridine-3-carboxamide] | +++ (“+++” means <3 uM)
